Columns and labels:
[1] = tested on: Ctenocephalides Felis (Cat Flea); assay: Activity in vitro against Ctenocephalides felis (cat flea), Assay A; conditions: Ctenocephalides felis; at 100 ppm; adult fleas fed on treated blood for 24 h; dead fleas counted; read-out: efficacy (EC80)
Procedure: Activity In Vitro Against Ctenocephalides Felis (Cat Flea)—Assay A
A mixed adult population of fleas is placed in a suitably formatted 96-well plate allowing fleas to access and feed on treated blood via an artificial feeding system. Fleas are fed on treated blood for 24 h, after which the compound effect is recorded. Insecticidal activity is determined on the basis of the number of dead fleas recovered from the feeding system.

Lice (Polyplax serrata) = assay: Activity in vivo against lice (Polyplax serrata) in mice (topical); conditions: pour-on application, live lice on day +4 and +14, Henderson & Tilton formula, read-out: efficacy (EC90)
Procedure: Activity In Vivo Against Lice (Polyplax serrata) in Mice (Topical) Mice naturally infected with P. serrata are treated with the formulated test compound on day 0 by pour-on application. On day +4 and +14, efficacy is evaluated by counting the number of live lice under a binocular. Efficacy at the two time points is expressed as a comparison of lice numbers counted on the same mouse before treatment, using the Henderson & Tilton formula, taking also into account lice numbers found on mice treated with the empty formulation (placebo group): [formula] n=number of lice, T=treated group, Co=control/placebo group.

[2] = tested on: Lucilla Cuprina (Australian sheep blowfly); assay: Activity in vitro against Lucilla cuprina (Australian sheep blowfly), Assay A; conditions: Lucilia cuprina, 96 h; at 32 ppm; eggs on agar-based medium, 4 days at 28° C. and 60% relative humidity; read-out: efficacy (EC80)
Procedure: Activity in vitro against Lucilla Cuprina (Australian sheep blowfly)—Assay A
Freshly laid blowfly eggs are used to seed a suitably formatted microplate containing the test substances to be evaluated for antiparasitic activity. Each compound is tested by serial dilution in order to determine its minimum efficacy dose. The test compounds are embedded in an agar-based nutritive medium allowing the full development of the eggs into 3rd instar larvae. The incubation lasts for 4 days at 28° C. and 60% relative humidity. Egg-hatching and ensuing larval development are also recorded to identify a possible growth-regulating activity.

[3] = tested on: Engorged Female Rhipicephalus microplus (Cattle Tick); assay: Activity in vitro against engorged female Rhipicephalus microplus (cattle tick), contact test; conditions: 672 h, organophosphorous-resistant Ultimo strain, evaluation 28 days later on mortality, oviposition and hatched larvae, read-out: efficacy (EC80)
Procedure: Activity In Vitro Against Engorged Female Rhipicephalus microplus (Cattle Tick)
A contact test is performed by pre-coating 6-well microplates with serial dilution of the compound to be evaluated for anti-parasitic activity. 10 engorged female ticks of the organophosphorous-resistant Ultimo strain are distributed to each well in triplicates. Plates are then incubated at 28° C. and 80% relative humidity. Evaluation takes place 28 days later based on mortality, oviposition and hatched larvae. […] Activity In Vivo Against Rhipicephalus sanguineus Nymphs on Mongolian Gerbils (Meriones unguiculatus) (Spray Application)

[4] = tested on: Rhipicephalus sanguineus (Dog Tick); assay: Activity in vitro against Rhipicephalus sanguineus (dog tick), Assay A, contact test; conditions: Rhipicephalus sanguineus, 168 h, at 100 ppm, adult ticks, 28° C. and 80% relative humidity for 7 days, read-out: efficacy (EC80)
Procedure: Activity In Vitro Against Rhipicephalus sanguineus (Dog Tick)—Assay A
A contact test is performed by pre-coating microplate with serial dilution of compound allowing evaluating anti-parasitic activity by contact against ticks. A mixed adult tick population is then distributed to each well of the plate and incubated at 28° C. and 80% relative humidity for 7 days, during which the effect of the test compound is monitored. Acaricidal activity is confirmed if and when adult ticks are dead.

SMILES	pest or weed control at 100 ppm [1]	inhibition in vivo at 32 mg/kg (Lice (Polyplax serrata))	pest or weed control at 32 ppm [2]	pest or weed control at 200 ppm [3]	pest or weed control at 100 ppm [4]
CC(c1ncnn1-c1ncccn1)N(CCCF)C(=O)c1cc(C(F)(F)F)cc(C(F)(F)F)c1 (stereo not drawn) [Example 21, N-(3-Fluoropropyl)-N-[1-(2-pyrimidin-2-yl-1,2,4-triazol-3-yl)ethyl]-3,5-bis(trifluoromethyl)benzamide]	> 80%	> 90%	> 80%	> 80%	–
CC(c1ncnn1-c1ncccn1)N(CC1CC1)C(=O)c1cccc(C#N)c1 (stereo not drawn) [Example 38, 3-Cyano-N-(cyclopropylmethyl)-N-[1-(2-pyrimidin-2-yl-1,2,4-triazol-3-yl)ethyl]benzamide]	> 80%	> 90%	> 80%	> 80%	> 80%
CC(c1ncnn1-c1ccccn1)N(CC1CC1)C(=S)c1cccc(C#N)c1 (stereo not drawn) [Example 47, 3-Cyano-N-(cyclopropylmethyl)-N-[1-[2-(2-pyridyl)-1,2,4-triazol-3-yl]ethyl]benzenecarbothioamide]	> 80%	–	–	–	> 80%
CC(c1ncnn1-c1ccccn1)N(CC1CC1)C(=O)c1cc(Cl)cc(C(F)(F)F)c1 (stereo not drawn) [Example 6, 3-Chloro-N-(cyclopropylmethyl)-N-[1-[2-(2-pyridyl)-1,2,4-triazol-3-yl]ethyl]-5-(trifluoromethyl)benzamide]	> 80%	–	> 80%	> 80%	> 80%
CCCN(C(=O)c1cc(Cl)cc(Cl)c1)C(C)c1ncnn1-c1ccccn1 (stereo not drawn) [Example 3]	> 80%	–	> 80%	> 80%	> 80%
CC(c1ncnn1-c1ccccn1)N(CC1CC1)C(=O)c1cccc(OC(F)(F)F)c1 (stereo not drawn) [Example 4, N-(Cyclopropylmethyl)-N-[1-[2-(2-pyridyl)-1,2,4-triazol-3-yl]ethyl]-3-(trifluoromethoxy)benzamide]	> 80%	–	> 80%	> 80%	> 80%
CC(c1ncnn1-c1ccccn1)N(CC1COC1)C(=O)c1cc(C(F)(F)F)cc(C(F)(F)F)c1 (stereo not drawn) [Example 13, N-(Oxetan-3-ylmethyl)-N-[1-[2-(2-pyridyl)-1,2,4-triazol-3-yl]ethyl]-3,5-bis(trifluoromethyl)benzamide]	> 80%	–	> 80%	–	> 80%
CC(c1ncnn1-c1ncccn1)N(CCF)C(=O)c1cc(Cl)cc(OC(F)(F)F)c1 (stereo not drawn) [Example 22, 3-Chloro-N-(2-fluoroethyl)-N-[1-(2-pyrimidin-2-yl-1,2,4-triazol-3-yl)ethyl]-5-(trifluoromethoxy)benzamide]	> 80%	–	> 80%	> 80%	–
CC(CN(CC1CC1)C(=O)c1cc(C(F)(F)F)cc(C(F)(F)F)c1)c1ncnn1-c1ccccn1 (stereo not drawn) [Example 42, 3-(Cyclopropylmethyl)-N-[2-[2-(2-pyridyl)-1,2,4-triazol-3-yl]propyl]-3,5-bis(trifluoromethyl)benzamide]	> 80%	–	> 80%	–	> 80%
CC(c1ncnn1-c1ncccn1)N(CCCF)C(=O)c1cc(Cl)cc(OC(F)(F)F)c1 (stereo not drawn) [Example 25, 3-Chloro-N-(3-fluoropropyl)-N-[1-(2-pyrimidin-2-yl-1,2,4-triazol-3-yl)ethyl]-5-(trifluoromethoxy)benzamide]	> 80%	> 90%	> 80%	> 80%	–
C#CCN(C(=O)c1cncc(C(F)(F)F)c1)C(C)c1ncnn1-c1ncccn1 (stereo not drawn) [Example 32, N-Prop-2-ynyl-N-[1-(2-pyrimidin-2-yl-1,2,4-triazol-3-yl)ethyl]-5-(trifluoromethyl)pyridine-3-carboxamide]	> 80%	–	> 80%	–	> 80%
CC(c1ncnn1-c1ccccn1)N(CC1CC1(Cl)Cl)C(=O)c1cc(C(F)(F)F)cc(C(F)(F)F)c1 (stereo not drawn) [Example 17, N-[(2,2-Dichlorocyclopropyl)methyl]-N-[1-[2-(2-pyridyl)-1,2,4-triazol-3-yl]ethyl]-3,5-bis(trifluoromethyl)benzamide]	> 80%	> 90%	> 80%	> 80%	–
C#CCN(C(=O)c1cncc(C(F)(F)F)c1)[C@@H](C)c1ncnn1-c1ncccn1 [Example 43, N-Prop-2-ynyl-N-[(1S)-1-(2-pyrimidin-2-yl-1,2,4-triazol-3-yl)ethyl]-5-(trifluoromethyl)pyridine-3-carboxamide]	> 80%	–	> 80%	–	> 80%
C#CCN(C(=O)c1cc(C(F)(F)F)cc(C(F)(F)F)c1)[C@@H](C)c1ncnn1-c1ncccn1 [Example 46, N-Prop-2-ynyl-N-[(1S)-1-(2-pyrimidin-2-yl-1,2,4-triazol-3-yl)ethyl]-3,5-bis(trifluoromethyl)benzamide]	> 80%	–	> 80%	> 80%	–
Cc1nc(C(C)N(CC2CC2)C(=O)c2cccc(C#N)c2)n(-c2ccccn2)n1 (stereo not drawn) [Example 34, 3-Cyano-N-(cyclopropylmethyl)-N-[1-[5-methyl-2-(2-pyridyl)-1,2,4-triazol-3-yl]ethyl]benzamide]	> 80%	–	–	–	> 80%
CC(c1ncnn1-c1ncccn1)N(CCC(F)(F)F)C(=O)c1cc(Cl)cc(OC(F)(F)F)c1 (stereo not drawn) [Example 27, 3-Chloro-N-[1-(2-pyrimidin-2-yl-1,2,4-triazol-3-yl)ethyl]-5-(trifluoromethoxy)-N-(3,3,3-trifluoropropyl)benzamide]	> 80%	> 90%	> 80%	–	> 80%
C#CCN(C(=O)c1cc(Cl)cc(C(F)(F)F)c1)C(C)c1ncnn1-c1ccccn1 (stereo not drawn) [Example 7, 3-Chloro-N-prop-2-ynyl-N-[1-[2-(2-pyridyl)-1,2,4-triazol-3-yl]ethyl]-5-(trifluoromethyl)benzamide]	> 80%	> 90%	> 80%	> 80%	–
CC(c1ncnn1-c1ccccn1)N(Cc1cccc(Cl)c1)C(=O)c1cccc(C#N)c1 (stereo not drawn) [Example 5, N-[(3-Chlorophenyl)methyl]-3-cyano-N-[1-[2-(2-pyridyl)-1,2,4-triazol-3-yl]ethyl]benzamide]	> 80%	–	–	–	–
CC(c1nnnn1-c1ncccn1)N(CC1CC1)C(=O)c1cc(C(F)(F)F)cc(C(F)(F)F)c1 (stereo not drawn) [Example 33, N-(Cyclopropylmethyl)-N-[1-(1-pyrimidin-2-yltetrazol-5-yl)ethyl]-3,5-bis(trifluoromethyl)benzamide]	–	–	> 80%	–	–
CC(c1ncnn1-c1ccccn1)N(CC1CC1)C(=O)c1cc(Cl)cc(Cl)c1 (stereo not drawn) [Example 2, 3,5-Dichloro-N-(cyclopropylmethyl)-N-[1-[2-(2-pyridyl)-1,2,4-triazol-3-yl]ethyl]benzamide]	> 80%	–	> 80%	> 80%	> 80%
CC(c1ncnn1-c1ncccn1)N(CCF)C(=O)c1cncc(C(F)(F)F)c1 (stereo not drawn) [Example 30, N-(2-Fluoroethyl)-N-[1-(2-pyrimidin-2-yl-1,2,4-triazol-3-yl)ethyl]-5-(trifluoromethyl)pyridine-3-carboxamide]	> 80%	> 90%	> 80%	–	> 80%

Source: patent publication US10287276B2, “Heteroaryl-1,2,4-triazole and heteroaryl-tetrazole compounds for controlling ectoparasites” (Elanco Tiergesundheit AG, priority 2016, dated 2019)
